Data as given in PMC6270983, “Gastroprotective Mechanisms of Action of Semisynthetic Carnosic Acid Derivatives in Human Cells” (Molecules, 2014).

How the values were obtained:
AGS cells [1] = assay: Sodium taurocholate (NaT)-induced damage to AGS cells, viability by neutral red uptake; conditions: 60 min pre-treatment, then 10 mM NaT 30 min
Procedure: The model of AGS cells damaged by sodium taurocholate (NaT) was used to determine the gastroprotective effect of the compounds against the bile-induced injury on the gastric mucosa [10].
The effect of sodium taurocholate (NaT) on cell viability was determined according to Romano et al. [10]. […] Then, 10 mM NaT was added to all wells for 30 min. Un-treated cells were used as controls. Sucralfate (4 mg/mL) was used as reference compound. After incubation, the neutral red uptake (NRU, 0.05 mg/mL) assay was carried out to determine cell viability [4, 33].

AGS cells [2] = assay: Cellular reduced glutathione (GSH) content in AGS cells co-incubated with 4% ethanol; format: cell-based, human; conditions: 12 h; for percent increase of GSH content compared with untreated controls: AGS cells
[3] = system: human erythrocyte membranes; assay: Inhibition of lipoperoxidation in erythrocyte membranes; format: biochemical
Procedure: The inhibition of lipid peroxidation was determined using human erythrocyte membranes. The products were tested at 500 µg/mL.

MRC-5 fibroblasts = assay: Proliferation assay of MRC-5 fibroblasts, neutral red uptake; format: cell-based, human; conditions: 4 days
Procedure: Human lung fibroblasts MRC-5 (ATCC CCL-171) were grown as monolayers in minimum essential Eagle medium (MEM), with Earle’s salts, 2 mM L-glutamine and 2.2 g/L sodium bicarbonate, supplemented with 10% heat-inactivated fetal bovine serum (FBS), 100 IU/mL penicillin and 100 µg/mL streptomycin in a humidified incubator with 5% CO2 in air at 37 °C. For the subsequent experiments, cells were plated at a density of 2.5 × 10^4 cells/mL in 96-well plates.
Untreated cells were used as controls. Cell viability was determined at the end of the incubation by means of the NRU assay. The neutral red concentration was 0.05 mg/mL [4, 33].

AGS cells [4] = assay: Prostaglandin E2 (PGE2) content of AGS cells, enzyme immunoassay; format: cell-based, human

CC(C)c1cc2c(c(O)c1O)[C@@]1(C(=O)O)CCCC(C)(C)[C@@H]1CC2 [CA, Carnosic acid]
percent cytoprotective effect compared to NaT control (AGS cells [1]; 6 µM): 23% | percent cytoprotective effect compared to NaT control (AGS cells [1]; 12 µM): 22% | percent increase of GSH content compared with untreated controls (AGS cells [2]; 4.5 µM): 19% | Inhibition of the lipoperoxidation, IC50 [3]: IC50 2.4 ± 0.18 µg/mL

O.Oc1cc(O)c2c(c1)O[C@H](c1ccc(O)c(O)c1)[C@@H](O)C2 [Catechin, reference compound]
Inhibition of the lipoperoxidation, IC50 [3]: IC50 75.4 ± 6.0 µg/mL

COC(=O)[C@]12CCCC(C)(C)C1CCc1cc(C(C)C)c(O)c(O)c12 (stereo partly shown) [Compound 1]
percent cytoprotective effect compared to NaT control (AGS cells [1]; 3 µM): 13% | Inhibition of the lipoperoxidation, IC50 [3]: IC50 34.4 ± 4.1 µg/mL

COC(=O)[C@]12CCCC(C)(C)C1CCc1cc(C(C)C)c(OC)c(OC)c12 (stereo partly shown) [Compound 2]
Inhibition of the lipoperoxidation, percent effect at 500 µg/mL [3]: 53%

CC(=O)Oc1c(C(C)C)cc2c(c1OC(C)=O)[C@@]1(C(=O)O)CCCC(C)(C)C1CC2 (stereo partly shown) [Compound 3]
percent cytoprotective effect compared to NaT control (AGS cells [1]; 10.5 µM): 13% | percent cytoprotective effect compared to NaT control (AGS cells [1]; 21 µM): 15% | percent cytoprotective effect compared to NaT control (AGS cells [1]; 42 µM): 13% | Inhibition of the lipoperoxidation, percent effect at 500 µg/mL [3]: 11%

COC(=O)[C@]12CCCC(C)(C)C1CCc1cc(C(C)C)c(OC(=O)CCl)c(OC(=O)CCl)c12 (stereo partly shown) [Compound 5]
percent cytoprotective effect compared to NaT control (AGS cells [1]; 1.1 µM): 17% | percent cytoprotective effect compared to NaT control (AGS cells [1]; 2.3 µM): 15% | percent cytoprotective effect compared to NaT control (AGS cells [1]; 4.5 µM): 8% | Inhibition of the lipoperoxidation, IC50 [3]: IC50 27.6 ± 3.0 µg/mL

CCC(=O)Oc1c(C(C)C)cc2c(c1O)[C@@]1(C(=O)OC)CCCC(C)(C)C1CC2 (stereo partly shown) [Compound 6]
Inhibition of the lipoperoxidation, percent effect at 500 µg/mL [3]: 42%

CCCC(=O)Oc1c(C(C)C)cc2c(c1OC(=O)CCC)[C@@]1(C(=O)OC)CCCC(C)(C)C1CC2 (stereo partly shown) [Compound 7]
stimulation of fibroblast proliferation compared to untreated controls (MRC-5 fibroblasts; 16 µM): 8% | Inhibition of the lipoperoxidation, percent effect at 500 µg/mL [3]: 34%

COC(=O)[C@]12CCCC(C)(C)C1CCc1cc(C(C)C)c(OC(=O)C(C)C)c(O)c12 (stereo partly shown) [Compound 8]
Inhibition of the lipoperoxidation, IC50 [3]: IC50 13.6 ± 1.48 µg/mL

COC(=O)[C@]12CCCC(C)(C)C1CCc1cc(C(C)C)c(OC(=O)c3ccccc3)c(OC(=O)c3ccccc3)c12 (stereo partly shown) [Compound 9]
Inhibition of the lipoperoxidation, IC50 [3]: IC50 147.2 ± 16.6 µg/mL

COC(=O)[C@]12CCCC(C)(C)C1CCc1cc(C(C)C)c(OC(=O)c3cccnc3)c(OC(=O)c3cccnc3)c12 (stereo partly shown) [Compound 10, 11,12-O-dinicotinylmethylcarnosate]
percent increase of GSH content compared with untreated controls (AGS cells [2]; 1.4 µM): 14% | Inhibition of the lipoperoxidation, percent effect at 500 µg/mL [3]: 22%

COC(=O)[C@]12CCCC(C)(C)C1CCc1cc(C(C)C)c(OC(=O)Cc3ccccc3)c(OC(=O)Cc3ccccc3)c12 (stereo partly shown) [Compound 11]
percent cytoprotective effect compared to NaT control (AGS cells [1]; 62.5 µM): 12% | Inhibition of the lipoperoxidation, IC50 [3]: IC50 140.4 ± 12.6 µg/mL

COC(=O)[C@]12CCCC(C)(C)C1CCc1cc(C(C)C)c(OC(=O)Cc3c[nH]c4ccccc34)c(OC(=O)Cc3c[nH]c4ccccc34)c12 (stereo partly shown) [Compound 12]
Inhibition of the lipoperoxidation, percent effect at 500 µg/mL [3]: 38%

COC(=O)[C@]12CCCC(C)(C)C1CCc1cc(C(C)C)c(OC(=O)CCCc3c[nH]c4ccccc34)c(O)c12 (stereo partly shown) [Compound 13, 12-O-indolebutyrylmethylcarnosate]
percent cytoprotective effect compared to NaT control (AGS cells [1]; 2.5 µM): 12% | percent cytoprotective effect compared to NaT control (AGS cells [1]; 5 µM): 8% | percent increase of GSH content compared with untreated controls (AGS cells [2]; 2.0 µM): 11% | increase of PGE2 content compared to controls (AGS cells [4]; 20 µM, AGS cells): 2.7 fold | Inhibition of the lipoperoxidation, percent effect at 500 µg/mL [3]: 49%

COc1c(C(C)C)cc2c(c1O)[C@@]1(C(=O)O)CCCC(C)(C)C1CC2 (stereo partly shown) [Compound 14, 12-O-methylcarnosic acid]
percent cytoprotective effect compared to NaT control (AGS cells [1]; 2.8 µM): 12% | percent cytoprotective effect compared to NaT control (AGS cells [1]; 5.6 µM): 5% | percent increase of GSH content compared with untreated controls (AGS cells [2]; 2.3 µM): 8% | Inhibition of the lipoperoxidation, IC50 [3]: IC50 186.3 ± 16.9 µg/mL

COC(=O)[C@]12CCCC(C)(C)C1CCc1cc(C(C)C)c(OC)c(O)c12 (stereo partly shown) [Compound 15, 12-O-metylmethylcarnosate]
percent increase of GSH content compared with untreated controls (AGS cells [2]; 4.5 µM): 11% | Inhibition of the lipoperoxidation, IC50 [3]: IC50 165.0 ± 14.9 µg/mL

CCCOc1c(OC)c(C(C)C)cc2c1[C@@]1(C(=O)OC)CCCC(C)(C)C1CC2 (stereo partly shown) [Compound 16]
growth stimulation compared to untreated controls (MRC-5 fibroblasts; 12 µM): 8% | growth stimulation compared to untreated controls (MRC-5 fibroblasts; 24 µM): 18% | Inhibition of the lipoperoxidation, percent effect at 500 µg/mL [3]: 46%

COC(=O)[C@]12CCCC(C)(C)C1CCc1cc(C(C)C)c(OC)c(OC(C)=O)c12 (stereo partly shown) [Compound 17]
stimulation of fibroblast proliferation compared to untreated controls (MRC-5 fibroblasts; 23 µM): 7%

CCCOC(=O)[C@]12CCCC(C)(C)C1CCc1cc(C(C)C)c(OC)c(OCCC)c12 (stereo partly shown) [Compound 18]
stimulation of fibroblast proliferation compared to untreated controls (MRC-5 fibroblasts; 32 µM): 16% | stimulation of fibroblast proliferation compared to untreated controls (MRC-5 fibroblasts; 63 µM): 22%

COc1ccc2c(c1)c(CC(=O)O)c(C)n2C(=O)c1ccc(Cl)cc1 [Indomethacin, reference compound]
PGE2 (AGS cells [4]; 100 µM, 1 h, control 24.9 ± 2.1): 8.5 ± 1.3 pg/mL

CC(=O)N[C@@H](CS)C(=O)O [NAC, N-acetyl-L-cysteine, reference compound]
GSH (nmol/10^6 cells) (AGS cells [2]; 750 µM, control 3.6 ± 0.2): 4.0 ± 0.2 nmol/10^6 cells | percent increase of GSH content compared with untreated controls (AGS cells [2]; 750 µM): 11%
